Assay results published in patent US6386145B1, “Process for curing diseases in cultured fish” (B. L. Mitchell, Inc., priority 2000, dated 2002).

System: catfish diagnosed as having PGD (proliferative gill disease)
Experiment: treatment of rearing pond containing catfish diseased with PGD
Type: in vivo
Method: In order to effect these concentrations in the tank or pond where the diseased fish are contained the concentrated solution of Chloramine-T is prepared for using the correct amount of Chloramine-T for the volume of water which is contained in the tank or pond where the diseased fish reside. This concentrated solution is then spread evenly over the surface of the pond or tank via the use of a chemical boat. In order to aid mixing aeration equipment is run one hour before the application and 35 hours after the application.
1. A pond of 17 acres, 4.5 feet deep holding approximately 2 million catfish contained approximately 76.5 acre feet of water. […] […] Upon examination the whole fish population was diagnosed as having PGD in various stages with some of the fish dying. 411.57 pounds of Chloramine-T was dissolved in 50 gallons of water contained in a tank on a chemical boat, as the boat moved over the pond the Chloramine-T was applied evenly over the surface of the pond.

[1] = Example 1, catfish 2 to 4 inches, 2 ppm, after 72 hours
[2] = Example 2, catfish 6 to 9 inches, 2 ppm, after 72 hours
[3] = Example 3, catfish 1 to 1.25 pounds, 2 ppm, after 72 hours
[4] = Example 4, catfish 8 to 11 inches, 2 ppm, after 72 hours
[5] = Example 5, catfish 8 to 11 inches, 1.5 ppm, after 72 hours

## Cc1ccc(S(=O)(=O)NCl)cc1.[Na] [Chloramine-T, N-Sodium, N-chloro-para-toluenesulfonamide]
Example 1, catfish 2 to 4 inches, approx. 2 million, 2 ppm in pond, 24 hours after application
  death rate of the fish: substantially decreased
Example 1, catfish 2 to 4 inches, 2 ppm, after 48 hours
  death rate of the fish: further decreased
[1]
  PGD status upon examination of the fish population: in remission
  death of fish: essentially stopped
Example 1, catfish 2 to 4 inches, 2 ppm, after 96 hours
  PGD status upon examination of the fish population: free of PGD
Example 2, catfish 6 to 9 inches, approx. 1 million, 2 ppm in pond, 24 hours after application
  death rate of the fish: substantially decreased
Example 2, catfish 6 to 9 inches, 2 ppm, after 48 hours
  death rate of the fish: further decreased
[2]
  PGD status upon examination of the fish population: in remission
  death of fish: essentially stopped
Example 2, catfish 6 to 9 inches, 2 ppm, after 96 hours
  PGD status upon examination of the fish population: free of PGD
Example 3, catfish 1 to 1.25 pounds, approx. 125,000, 2 ppm in pond, 24 hours after application
  death rate of the fish: substantially decreased
Example 3, catfish 1 to 1.25 pounds, 2 ppm, after 48 hours
  death rate of the fish: further decreased
[3]
  PGD status upon examination of the fish population: in remission
  death of fish: essentially stopped
Example 3, catfish 1 to 1.25 pounds, 2 ppm, after 96 hours
  PGD status upon examination of the fish population: free of PGD
Example 4, catfish 8 to 11 inches, approx. 700,000, 2 ppm in pond, 24 hours after application
  death rate of the fish: substantially decreased
Example 4, catfish 8 to 11 inches, 2 ppm, after 48 hours
  death rate of the fish: further decreased
[4]
  PGD status upon examination of the fish population: in remission
  death of fish: essentially stopped
Example 4, catfish 8 to 11 inches, 2 ppm, after 96 hours
  PGD status upon examination of the fish population: free of PGD
Example 5, catfish 8 to 11 inches, approx. 700,000, 1.5 ppm in pond, 24 hours after application
  death rate of the fish: no decrease
Example 5, catfish 8 to 11 inches, 1.5 ppm, after 48 hours
  death rate of the fish: not decreased
[5]
  PGD status upon examination of the fish population: continued unabated
  death of fish: continued
Example 5, catfish 8 to 11 inches, 1.5 ppm, after 96 hours
  PGD status upon examination of the fish population: continued to die and be afflicted with PGD
Example 6, catfish 8 to 11 inches, approx. 450,000, 387 pounds in 48 acre feet, printed 1.5 ppm, 24 hours after application
  survival of the diseased fish: all of the fish were dead
Concentrations of less than 2 ppm
  control of PGD in diseased catfish (summary of Examples 1 through 6): ineffective
Concentrations of more than 3 ppm
  toxicity to diseased catfish (summary of Examples 1 through 6): kill the diseased catfish
Use in accordance with the process of the invention (2 to 3 ppm)
  control of PGD in diseased catfish (summary of Examples 1 through 6): eliminates PGD
